# Reference: ChEMBL document CHEMBL1629628, “Methicillin-resistant and -susceptible Staphylococcus aureus strains of clonal lineages ST398 and ST9 from swine carry the multidrug resistance gene cfr” (2009)
# How the values were obtained:
# Format in all cases: functional
# [1] = test system: Staphylococcus aureus; assay: Antimicrobial activity against Staphylococcus aureus RN4220 transformed with Staphylococcus aureus ST9 plasmid pSCFS3 carrying cfr and fexA genes
# [2] = test system: Staphylococcus aureus; assay: Antimicrobial activity against methicillin-resistant Staphylococcus aureus ST398 expressing cfr, fexA, erm(A), tet(M) and mecA genes
# [3] = test system: Staphylococcus aureus; assay: Antimicrobial activity against Staphylococcus aureus RN4220 transformed with Staphylococcus aureus ST398 plasmid pSCFS3 carrying cfr and fexA genes
# [4] = test system: Staphylococcus aureus; assay: Antimicrobial activity against methicillin-susceptible Staphylococcus aureus ST9 expressing cfr, fexA and erm(C) genes
# [5] = test system: Staphylococcus aureus; assay: Antimicrobial activity against Staphylococcus aureus RN4220
SMILES,MIC [1] [µg/mL],MIC [2] [µg/mL],MIC [3] [µg/mL],MIC [4] [µg/mL],MIC [5] [µg/mL]
O=C(N[C@H](CO)[C@H](O)c1ccc([N+](=O)[O-])cc1)C(Cl)Cl [CHLORAMPHENICOL],≥ 128,≥ 128,≥ 128,≥ 128,4
CCC[C@@H]1C[C@@H](C(=O)N[C@@H]([C@H]2O[C@H](SC)[C@H](O)[C@@H](O)[C@H]2O)[C@H](C)Cl)N(C)C1 [CLINDAMYCIN],≥ 64,≥ 64,≥ 64,≥ 64,0.125
CC[C@H]1OC(=O)[C@H](C)[C@@H](O[C@H]2C[C@@](C)(OC)[C@@H](O)[C@H](C)O2)[C@H](C)[C@@H](O[C@@H]2O[C@H](C)C[C@H](N(C)C)[C@H]2O)[C@](C)(O)C[C@@H](C)C(=O)[C@H](C)[C@@H](O)[C@]1(C)O [ERYTHROMYCIN],0.25,≥ 64,0.25,≥ 64,0.25
CS(=O)(=O)c1ccc([C@@H](O)[C@@H](CF)NC(=O)C(Cl)Cl)cc1 [FLORFENICOL],128,≥ 128,128,≥ 128,2
CC(=O)NC[C@H]1CN(c2ccc(N3CCOCC3)c(F)c2)C(=O)O1 [LINEZOLID],–,–,–,8,0.5
Cc1onc(-c2ccccc2)c1C(=O)N[C@@H]1C(=O)N2[C@@H]1SC(C)(C)[C@@H]2C(=O)O [OXACILLIN],0.06,≥ 32,0.06,0.06,0.06
CN(C)[C@@H]1C(O)=C(C(N)=O)C(=O)[C@@]2(O)C(O)=C3C(=O)c4c(O)cccc4[C@@](C)(O)[C@H]3C[C@@H]12 [TETRACYCLINE],0.25,64,0.25,0.12,0.25
C=C[C@]1(C)C[C@@H](OC(=O)CSCCN(CC)CC)[C@]2(C)[C@H](C)CC[C@]3(CCC(=O)[C@H]32)[C@@H](C)[C@@H]1O [TIAMULIN],≥ 128,≥ 128,≥ 128,≥ 128,0.063
CC1=C\[C@@H](O)CC(=O)Cc2nc(co2)C(=O)N2CCC=C2C(=O)O[C@H](C(C)C)[C@H](C)/C=C/C(=O)NC\C=C\1 [VIRGINIAMYCIN FACTOR M1],128,128,128,128,4
